# Measured values as given in patent US7592347B2, “Piperazine derivates and their use for the treatment of neurological and psychiatric diseases” (Glaxo Group Limited, priority 2003, dated 2009).
# Structures can show the parent of a compound that is named as a salt.
# Target: T1, histamine H3 receptor (Homo sapiens, UniProt Q9Y5N1)
# T1 construct: expressed in transfected cells; host or cells: CHO K1 cells carrying pSwitch, transfected with pGeneH3 and induced with mifepristone; clone 3H3; membranes
# Test: Histamine H3 functional antagonist assay ([35S]GTPγS SPA, membranes of CHO K1 cells expressing human H3)
# Assay type: biochemical
# Conditions: functional antagonism of histamine (0.3 μM) stimulated [35S]GTPγS binding, membranes of CHO K1 cells with human histamine H3
# Method: A membrane preparation containing histamine H3 receptors may be prepared in accordance with the following procedures:
# Ligated DNA was transformed into competent DH5α E. coli host bacterial cells and plated onto Luria Broth (LB) agar containing Zeocin™ (an antibiotic which allows the selection of cells expressing the sh ble gene which is present on pGene and pSwitch) at 50 μg ml^−1. Colonies containing the re-ligated plasmid were identified by restriction analysis. DNA for transfection into mammalian cells was prepared from 250 ml cultures of the host bacterium containing the pGeneH3 plasmid and isolated using a DNA preparation kit (Qiagen Midi-Prep) as per manufacturers guidelines (Qiagen).
# CHO K1 cells previously transfected with the pSwitch regulatory plasmid (InVitrogen) were seeded at 2×10e6 cells per T75 flask in Complete Medium, containing Hams F12 (GIBCOBRL, Life Technologies) medium supplemented with 10% v/v dialysed foetal bovine serum, L-glutamine, and hygromycin (100 μg ml^−1), 24 hours prior to use. Plasmid DNA was transfected into the cells using Lipofectamine plus according to the manufacturers guidelines (InVitrogen). 48 hours post transfection cells were placed into complete medium supplemented with 500 μg ml^−1 Zeocin™.
# 10-14 days post selection 10 nM Mifepristone (InVitrogen), was added to the culture medium to induce the expression of the receptor. […] Approximately 1×10e7 cells were examined for receptor expression by staining with a rabbit polyclonal antibody, 4a, raised against the N-terminal domain of the histamine H3 receptor, incubated on ice for 60 minutes, followed by two washes in sorting medium. […] Following two further washes with Sorting Medium, cells were filtered through a 50 μm Filcon™ (BD Biosciences) and then analysed on a FACS Vantage SE Flow Cytometer fitted with an Automatic Cell Deposition Unit. […] Positively stained cells were sorted as single cells into 96-well plates, containing Complete Medium containing 500 μg ml^−1 Zeocin™ and allowed to expand before reanalysis for receptor expression via antibody and ligand binding studies.
# All steps of the protocol are carried out at 4° C. and with pre-cooled reagents. The cell pellet is resuspended in 10 volumes of buffer A2 containing 50 mM N-2-hydroxyethylpiperazine-N′-2-ethanesulfonic acid (HEPES)(pH 7.40) supplemented with 10e−4M leupeptin (acetyl-leucyl-leucyl-arginal; Sigma L2884), 25 μg/ml bacitracin (Sigma B0125), 1 mM ethylenediamine tetra-acetic acid (EDTA), 1 mM phenylmethylsulfonyl fluoride (PMSF) and 2×10e−6M pepstain A (Sigma). The cells are then homogenised by 2×15 second bursts in a 1 litre glass Waring blender, followed by centrifugation at 500 g for 20 minutes. The supernatant is then spun at 48,000 g.for 30 minutes. The pellet is resuspended in 4 volumes of buffer A2 by vortexing for 5 seconds, followed by homogenisation in a Dounce homogeniser (10-15 strokes). At this point the preparation is aliquoted into polypropylene tubes and stored at −70° C. […]
# The plate is then incubated on a shaker at room temperature for 30 minutes followed by centrifugation for 5 minutes at 1500 rpm. The plate is read between 3 and 6 hours after completion of centrifuge run in a Wallac Microbeta counter on a 1 minute normalised tritium count protocol. Data is analysed using a 4-parameter logistic equation. Basal activity used as minimum i.e. histamine not added to well.
# T1 sequence (Q9Y5N1 whole entry): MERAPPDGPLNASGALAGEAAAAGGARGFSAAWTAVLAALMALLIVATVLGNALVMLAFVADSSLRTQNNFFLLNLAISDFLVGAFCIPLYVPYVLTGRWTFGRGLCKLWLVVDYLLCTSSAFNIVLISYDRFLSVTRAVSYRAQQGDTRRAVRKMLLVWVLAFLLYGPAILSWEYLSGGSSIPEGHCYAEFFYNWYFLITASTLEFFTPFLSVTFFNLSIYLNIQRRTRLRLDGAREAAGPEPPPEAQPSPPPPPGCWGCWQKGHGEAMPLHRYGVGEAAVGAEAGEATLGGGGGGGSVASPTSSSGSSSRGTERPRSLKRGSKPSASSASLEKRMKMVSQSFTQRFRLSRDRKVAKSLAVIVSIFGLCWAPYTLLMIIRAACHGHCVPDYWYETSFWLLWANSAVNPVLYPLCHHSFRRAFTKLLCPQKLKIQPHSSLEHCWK
row,SMILES,Kb
1,"COc1ccc(N2CCC(C(=O)N3CCCN(C(C)C)CC3)CC2)cn1 [Example E62, 1-Isopropyl-4-[1-(6-methoxypyridin-3-yl)-piperidine-4-carbonyl]-[1,4]-diazepane]",< 3.16 nM
2,"CC(C)N1CCCN(C(=O)C2CCN(c3ccc(C#N)c(F)c3F)CC2)CC1 [Example E63, 1-Isopropyl-4-[1-(4-cyano-2,3-difluorophenyl)-piperidine-4-carbonyl]-[1,4]-diazepane]",< 3.16 nM
3,"CC(C)N1CCCN(C(=O)C2CCN(c3ccc(C#N)cc3Cl)CC2)CC1 [Example E64, 1-Isopropyl-4-[1-(4-cyano-2-chlorophenyl)-piperidine-4-carbonyl]-[1,4]-diazepane]",< 3.16 nM
4,"N#Cc1ccc(N2CCC(C(=O)N3CCCN(C4CCC4)CC3)CC2)c(Cl)c1 [Example E65, 1-Cyclobutyl-4-[1-(4-cyano-2-chlorophenyl)-piperidine-4-carbonyl]-[1,4]-diazepane]",< 3.16 nM
5,"N#Cc1ccc(N2CCC(C(=O)N3CCCN(C4CCC4)CC3)CC2)cc1Cl [Example E66, 1-Cyclobutyl-4-[1-(4-cyano-3-chlorophenyl)-piperidine4-carbonyl]-[1,4]-diazepane]",< 3.16 nM
6,"N#Cc1ccc(N2CCC(C(=O)N3CCCN(C4CCC4)CC3)CC2)cc1F [Example E67, 1-Cyclobutyl-4-[1-(4-cyano-3-fluorophenyl)-piperidine4-carbonyl]-[1,4]-diazepane]",< 3.16 nM
7,"N#Cc1ccc(N2CCC(C(=O)N3CCCN(C4CCC4)CC3)CC2)cc1C(F)(F)F [Example E68, 1-Cyclobutyl-4-[1-(4-cyano-3-trifluoromethylphenyl)-piperidine4-carbonyl]-[1,4]-diazepane]",< 3.16 nM
8,"CC(C)N1CCN(C(=O)C2CCN(c3ccc(C#N)cc3)CC2)C[C@@H]1C [Example E70, (S)-1-Isopropyl-4-[1-(4-cyanophenyl)-piperidine-4-carbonyl]-2-methylpiperazine]",< 3.16 nM
9,"CC(C)N1CCN(C(=O)C2CCN(c3ccc(C#N)nc3)CC2)C[C@@H]1C [Example E78, (S)-1-Isopropyl-4-[1-(6-cyanopyridin-3-yl)-piperidine-4-carbonyl]-2-methyl piperazine]",< 3.16 nM
10,"CC(C)N1CCN(C(=O)C2CCN(c3ccc(C(F)(F)F)nc3)CC2)C[C@@H]1C [Example E79, (S)-1-Isopropyl-4-[1-(6-trifluoromethylpyridin-3-yl)-piperidine-4-carbonyl]-2-methyl piperazine]",< 1 nM
11,"CC(C)N1CCN(C(=O)C2CCN(c3ccc(C#N)cn3)CC2)C[C@@H]1C [Example E86, (S)-1-Isopropyl-4-[1-(5-cyanopyridin-2-yl)-piperidine4-carbonyl]-2-methyl piperazine]",< 3.16 nM
12,"CC(C)N1CCN(C(=O)C2CCN(c3cnc(C(F)(F)F)cn3)CC2)C[C@@H]1C [Example E87, (S)-1-Isopropyl-4-[1-(5-trifluoromethyl-pyrazin-2-yl)-piperidine4-carbonyl]-2-methyl piperazine]",< 3.16 nM
13,"CC(C)N1CCN(C(=O)C2CCN(c3ccc(C(F)(F)F)nn3)CC2)C[C@@H]1C [Example E88, (S)-1-Isopropyl-4-[1-(6-trifluoromethyl-pyridazin-3-yl)-piperidine-4-carbonyl]-2-methyl piperazine]",< 3.16 nM
14,"CC(C)N1CCN(C(=O)C2CCN(c3ccc(-c4nnc(-c5ccccc5)o4)cc3)CC2)CC1 [Example E90, 1-Isopropyl-4-{1-[4-(5-phenyl-1,3,4-oxadiazol-2-yl)phenyl]-piperidine-4-carbonyl} piperazine]",< 3.16 nM
15,"CC(C)N1CCN(C(=O)C2CCN(c3ccc4ncccc4c3)CC2)CC1 [Example E91, 1-Isopropyl-4-[1-(quinolin-6-yl)-piperidine4-carbonyl]piperazine]",< 3.16 nM
16,"CC(C)N1CCN(C(=O)C2CCN(c3ccc(C(F)(F)F)nc3)CC2)CC1 [Example E96, 1-Isopropyl-4-[1-(6-trifluoromethylpyridin-3-yl)-piperidine-4-carbonyl]-piperazine]",< 0.316 nM
17,"O=C(C1CCN(c2ccc(C(F)(F)F)nc2)CC1)N1CCN(C2CCC2)CC1 [Example E97, 1-Cyclobutyl-4-[1-(6-trifluoromethylpyridin-3-yl)-piperidine-4-carbonyl]piperazine]",< 3.16 nM
18,"CC(C)N1CCN(C(=O)C2CCN(c3cnc(C(F)(F)F)cn3)CC2)CC1 [Example E102, 1-Isopropyl-4-[1-(5-trifluoromethyl-pyrazin-2-yl)-piperidine4-carbonyl]-piperazine]",< 3.16 nM
19,CC[C@H](C)N1CCN(C(=O)C2CCN(c3ccc(C#N)cc3)CC2)CC1 [Example E104],< 3.16 nM
20,"CC(C)N1CCN(C(=O)C2CCN(c3ccc(C(=O)C4CC4)cc3)CC2)CC1 [Example E105, 1-Isopropyl-4-[1-(4-cyclopropylcarbonylphenyl)-piperidine4-carbonyl]-piperazine]",< 3.16 nM
21,"Cc1ccc2cc(N3CCC(C(=O)N4CCN(C(C)C)CC4)CC3)ccc2n1 [Example E118, 1-Isopropyl-4-[1-(2-methyl-quinolin-6-yl)-piperidine-4-carbonyl]-piperazine]",< 3.16 nM

# The remaining lines, values ahead:
row,Kb,SMILES
1,< 3.16 nM,"CC(C)N1CCN(C(=O)C2CCN(c3ccc(C#N)nc3)CC2)CC1 [Example E129, 1-Isopropyl-4-[1-(6-cyano-pyridin-3-yl)-piperidine-4-carbonyl]-piperazine]"
2,< 0.316 nM,"CC(C)N1CCCN(C(=O)C2CCN(c3ccc(C(F)(F)F)nc3)CC2)CC1 [Example E135, 1-Isopropyl-4-[1-(6-trifluoromethylpyridin-3-yl)-pipenidine-4-carbonyl]-[1,4]-diazepane, hydrochloride]"
3,< 3.16 nM,"O=C(C1CCN(c2ccc(C(F)(F)F)nc2)CC1)N1CCCN(C2CCC2)CC1 [Example E136, 1-Cyclobutyl-4-[1-(6-trifluoromethylpyridin-3-yl)-piperidine4-carbonyl]-[1,4]-diazepane]"
4,< 3.16 nM,"N#Cc1cc(N2CCC(C(=O)N3CCCN(C4CCC4)CC3)CC2)ccn1 [Example E137, 1-Cyclobutyl-4-[1-(2-cyanopyridin-4-yl)-piperidine-4-carbonyl]-[1,4]-diazepane]"
5,< 3.16 nM,"CC(C)N1CCCN(C(=O)C2CCN(c3ccc(C(F)(F)F)nn3)CC2)CC1 [Example E138, 1-Isopropyl-4-[1-(6-trifluoromethylpyridazin-3-yl)-piperidine-4-carbonyl]-[1,4]-diazepane]"
6,< 3.16 nM,"CC(C)N1CCCN(C(=O)C2CCN(c3cnc(C(F)(F)F)cn3)CC2)CC1 [Example E139, 1-Isopropyl-4-[1-(5-trifluoromethylpyrazin-2-yl)-piperidine4-carbonyl]-[1,4]-diazepane]"
7,< 1 nM,"CC(=O)c1ccc(N2CCC(C(=O)N3CCCN(C(C)C)CC3)CC2)cc1 [Example E150, 1-Isopropyl-4-[1-(4-acetylphenyl)-piperidine-4-carbonyl]-[1,4]-diazepane]"
8,< 1 nM,"CCC(=O)c1ccc(N2CCC(C(=O)N3CCCN(C(C)C)CC3)CC2)cc1 [Example E151, 1-Isopropyl-4-[1-(4-propanoylphenyl)-piperidine-4-carbonyl]-[1,4]-diazepane]"
9,< 3.16 nM,"Cc1ncc(-c2ccc(N3CCC(C(=O)N4CCCN(C(C)C)CC4)CC3)cc2)o1 [Example E154, 1-Isopropyl-4-{1-[4-(2-methyl-1,3-oxazol-5-yl)phenyl]-piperidine4-carbonyl}-[1,4]-diazepane]"
10,< 3.16 nM,"Cc1noc(-c2ccc(N3CCC(C(=O)N4CCCN(C(C)C)CC4)CC3)cc2)n1 [Example E168, 1-Isopropyl-4-{1-[4-(3-methyl-1,2,4-oxadiazol-5-yl)phenyl]-piperidine-4-carbonyl}-[1,4]-diazepane]"
11,< 3.16 nM,"CC(=O)Nc1ccc(N2CCC(C(=O)N3CCCN(C(C)C)CC3)CC2)cc1F [Example E169, 1-Isopropyl-4-[1-(4-acetamido-3-fluorophenyl)-piperidine4-carbonyl]-[1,4]-diazepane]"
